Measured values from the supplement of paper PMC10307832.

What was measured:
Experiment in all cases: relative viability (nuclei count vs DMSO), 5 days (fraction); higher = more cells survive
AZD6482 + Palbociclib = compound: Cc1cc([C@@H](C)Nc2ccccc2C(=O)O)c2nc(N3CCOCC3)cc(=O)n2c1 [AZD6482] + CC(=O)c1c(C)c2cnc(Nc3ccc(N4CCNCC4)cn3)nc2n(C2CCCC2)c1=O [Palbociclib] (partner 0.5 µM)
Procedure, shortened: (§1)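 Lung cancer cell lines were pin-tool dosed in 1536-well plates on the day after seeding, with either a lone drug or a fixed anchor-drug dose plus five library-drug doses (not always all listed) in √10 steps. Nuclei were counted on 4× images after 5 days. Relative viability is the ratio of treated-well to vehicle-well nuclei counts, with each value a median of duplicate plates.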

AZD6482 + Bortezomib = compound: Cc1cc([C@@H](C)Nc2ccccc2C(=O)O)c2nc(N3CCOCC3)cc(=O)n2c1 [AZD6482] + CC(C)C[C@H](NC(=O)[C@H](Cc1ccccc1)NC(=O)c1cnccn1)B(O)O [Bortezomib] (partner 0.002 µM)
Procedure, shortened: as §1

AZD6482 + AZD7762 = compound: Cc1cc([C@@H](C)Nc2ccccc2C(=O)O)c2nc(N3CCOCC3)cc(=O)n2c1 [AZD6482] + NC(=O)Nc1cc(-c2cccc(F)c2)sc1C(=O)N[C@H]1CCCNC1 [AZD7762] (partner 0.2 µM)
Procedure, shortened: as §1

[1] = compound: COc1cc2nc(N3CCCN(C)CC3)nc(NC3CCN(Cc4ccccc4)CC3)c2cc1OC + Cc1nc(NC(=O)N2CCC[C@H]2C(N)=O)sc1-c1ccnc(C(C)(C)C(F)(F)F)c1 [Alpelisib] (partner 2 µM)
Procedure, shortened: as §1

Row | Cell Line | relative viability (AZD6482 + Palbociclib; first compound 0.08 µM) | relative viability (AZD6482 + Palbociclib; first compound 0.253 µM) | relative viability (AZD6482 + Palbociclib; first compound 0.8 µM) | relative viability (AZD6482 + Palbociclib; first compound 2.53 µM) | relative viability (AZD6482 + Palbociclib; first compound 8 µM) | relative viability (AZD6482 + Bortezomib; first compound 0.08 µM) | relative viability (AZD6482 + Bortezomib; first compound 0.253 µM) | relative viability (AZD6482 + Bortezomib; first compound 0.8 µM) | relative viability (AZD6482 + Bortezomib; first compound 2.53 µM) | relative viability (AZD6482 + Bortezomib; first compound 8 µM) | relative viability (AZD6482 + AZD7762; first compound 0.08 µM) | relative viability (AZD6482 + AZD7762; first compound 0.253 µM) | relative viability (AZD6482 + AZD7762; first compound 0.8 µM) | relative viability (AZD6482 + AZD7762; first compound 2.53 µM) | relative viability (AZD6482 + AZD7762; first compound 8 µM) | relative viability ([1]; first compound 0.2 µM) | relative viability ([1]; first compound 0.6325 µM) | relative viability ([1]; first compound 2 µM) | relative viability ([1]; first compound 6.325 µM)
1 | LU99A | 0.373 | 0.368 | 0.397 | 0.353 | 0.311 | 1.07 | 1.16 | 1.11 | 0.875 | 0.823 | 0.338 | 0.356 | 0.254 | 0.317 | 0.344 | 0.539 | 0.458 | 0.454 | 0.479
2 | ABC-1 | 0.603 | 0.79 | 0.664 | 0.662 | 0.544 | 0.267 | 0.306 | 0.317 | 0.336 | 0.408 | 0.825 | 0.892 | 0.695 | 0.772 | 0.638 | 0.955 | 0.988 | 1.18 | 0.92
3 | NCI-H2170 | 0.36 | 0.387 | 0.387 | 0.384 | 0.347 | – | – | – | – | – | 0.806 | 0.788 | 0.785 | 0.615 | 0.566 | 0.838 | 0.805 | 0.851 | 0.835
4 | NCI-H1299 | – | – | – | – | – | 0.916 | 1.03 | 1.11 | 0.957 | 1.1 | – | – | – | – | – | 1.03 | 1.08 | 1.06 | 1.08
5 | EBC-1 | – | – | – | – | – | 0.498 | 0.532 | 0.463 | 0.358 | 0.381 | – | – | – | – | – | 0.82 | 0.798 | 0.787 | 0.697
6 | NCI-H1648 | 0.313 | 0.275 | 0.265 | – | 0.242 | – | – | – | – | – | 0.708 | 0.674 | 0.872 | – | 0.6 | – | – | – | –
7 | ChaGo-K-1 | 0.948 | 0.901 | 0.926 | 0.919 | 0.934 | 1.09 | – | 1.14 | 0.981 | 1.27 | 0.897 | 0.775 | 0.946 | 0.823 | 0.915 | – | – | – | –
8 | COR-L23 | 0.223 | 0.28 | 0.305 | 0.338 | 0.224 | 0.948 | 0.945 | 1.23 | 0.678 | 0.828 | – | – | – | – | – | 0.799 | 0.724 | 0.944 | 0.712
9 | COR-L 105 | 0.419 | 0.434 | 0.434 | 0.492 | 0.376 | 0.719 | 0.893 | 0.704 | 0.699 | 0.791 | – | – | – | – | – | 1.11 | 0.86 | 1.08 | 0.732
10 | LK-2 | 0.732 | 0.698 | 0.688 | 0.54 | 0.342 | – | – | – | – | – | 0.386 | 0.362 | 0.434 | 0.239 | 0.271 | 1.02 | 1.05 | 1.26 | 1.01
11 | NCI-H596 | – | – | – | – | – | 0.988 | 0.95 | 0.946 | 1.01 | 0.985 | 0.874 | 1.05 | 1.07 | 0.925 | 0.966 | 0.616 | 0.458 | 0.498 | 0.44
12 | NCI-H2023 | 0.265 | 0.328 | 0.405 | 0.277 | 0.226 | 0.984 | 0.742 | 0.874 | 0.623 | 0.679 | – | – | – | – | – | 0.661 | 0.634 | 0.714 | 0.331
